Results: article PMC8148378 (Chemical Science, 2019)
In brackets after ≈: the same amount, converted by molar mass.

What was measured:
[1] = system: E. coli WT DSM-1116; assay: MIC determination; assay type: cell-based; settings: Escherichia coli, DSM1116, read-out: MIC E. coli WT, DSM-1116
[2] = system: S. aureus ATCC29213; assay: MIC determination; assay type: cell-based; settings: Staphylococcus aureus, ATCC29213, read-out: MIC S. aureus, ATCC29213
[3] = biological target: E. coli gyrase (Escherichia coli, UniProt P0AES4); assay: DNA gyrase supercoiling assay, method b; assay type: biochemical
E. coli gyrase, sequence (P0AES4 whole entry): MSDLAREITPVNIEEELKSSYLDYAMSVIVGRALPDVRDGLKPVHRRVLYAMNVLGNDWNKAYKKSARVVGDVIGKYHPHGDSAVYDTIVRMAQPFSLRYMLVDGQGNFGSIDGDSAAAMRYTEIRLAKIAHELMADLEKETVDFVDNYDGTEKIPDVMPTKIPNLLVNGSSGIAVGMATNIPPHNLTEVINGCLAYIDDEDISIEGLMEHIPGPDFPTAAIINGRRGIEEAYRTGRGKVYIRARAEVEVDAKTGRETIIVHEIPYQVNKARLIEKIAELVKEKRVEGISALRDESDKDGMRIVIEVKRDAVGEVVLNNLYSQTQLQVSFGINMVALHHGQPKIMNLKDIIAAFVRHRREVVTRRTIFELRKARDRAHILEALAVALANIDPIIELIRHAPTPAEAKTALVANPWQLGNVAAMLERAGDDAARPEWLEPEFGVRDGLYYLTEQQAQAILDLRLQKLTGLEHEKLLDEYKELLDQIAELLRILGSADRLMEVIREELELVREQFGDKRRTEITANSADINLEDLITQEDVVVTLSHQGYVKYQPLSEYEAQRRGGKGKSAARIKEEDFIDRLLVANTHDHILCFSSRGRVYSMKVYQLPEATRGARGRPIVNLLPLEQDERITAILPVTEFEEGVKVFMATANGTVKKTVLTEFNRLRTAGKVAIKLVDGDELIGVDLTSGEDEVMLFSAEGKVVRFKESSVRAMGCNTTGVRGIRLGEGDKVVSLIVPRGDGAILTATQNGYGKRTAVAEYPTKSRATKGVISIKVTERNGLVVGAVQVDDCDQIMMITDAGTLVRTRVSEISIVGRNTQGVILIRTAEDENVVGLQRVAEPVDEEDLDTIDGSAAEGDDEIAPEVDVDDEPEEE

[4] = system: E. coli WT-3; assay: MIC determination, larger panel; assay type: cell-based; settings: Escherichia coli, WT3, read-out: MIC E. coli WT-3
[5] = system: A. baumannii DSM-30008; assay: MIC determination, larger panel; assay type: cell-based; settings: Acinetobacter baumannii, DSM30008, read-out: MIC A. baumannii, DSM-30008
[6] = system: P. aeruginosa ΔmexAB (PA14ΔmexAB); assay: MIC determination; assay type: cell-based; settings: Pseudomonas aeruginosa, read-out: MIC P. aeruginosa ΔmexAB
[7] = system: E. coli ΔtolC; assay: MIC determination; assay type: cell-based; settings: Escherichia coli, read-out: MIC E. coli ΔtolC
[8] = system: P. aeruginosa WT PA14; assay: MIC determination; assay type: cell-based, Pseudomonas aeruginosa; settings: Pseudomonas aeruginosa, PA14, read-out: MIC P. aeruginosa WT, PA14
[9] = system: P. mirabilis DSM-4479; assay: MIC determination, larger panel; assay type: cell-based; settings: Proteus mirabilis, DSM4479, read-out: MIC P. mirabilis
[10] = system: E. faecalis ATCC-29212; assay: MIC determination, larger panel; assay type: cell-based; settings: Enterococcus faecalis, ATCC29212, read-out: MIC E. faecalis
[11] = system: P. aeruginosa ESBL 1 DSM-24600; assay: MIC determination, larger panel; assay type: cell-based; settings: Pseudomonas aeruginosa, DSM24600, read-out: MIC P. aeruginosa ESBL 1

| Compound | MIC [1] | MIC [2] | MIC [6] | MIC [7] | MIC [8] | further results |
| --- | --- | --- | --- | --- | --- | --- |
| CC(C)Oc1c(NC(=O)c2ccc(NC(=O)[C@H](CC(N)=O)NC(=O)c3ccc(NC(=O)c4ccccc4)cc3)cc2)ccc(C(=O)Nc2ccc(C(=O)O)cc2)c1O [Compound 15] | > 64 µg/mL |  |  |  |  |  |
| CC(C)Oc1c(NC(=O)c2ccc(NC(=O)[C@H](CC(N)=O)NC(=O)c3ccc(NC(=O)c4ccc(C(F)(F)F)cc4)cc3)cc2)ccc(C(=O)Nc2ccc(C(=O)O)cc2)c1O [Compound 23] |  | 16 to 32 µg/mL (≈ 18.7 to 37.4 µM) |  |  |  |  |
| CC(C)Oc1c(NC(=O)c2ccc(NC(=O)[C@H](CC(N)=O)NC(=O)c3ccc(NC(=O)c4ccc(NC(=O)c5ccc([N+](=O)[O-])cc5)cc4)cc3)cc2)ccc(C(=O)Nc2ccc(C(=O)O)cc2)c1O [Compound 24] |  |  |  |  |  | fold reduced inhibitory activity in the gyrase assay ([3]; compared to 4): 20 fold |
| CC(C)Oc1c(NC(=O)c2ccc(NC(=O)[C@H](CC(N)=O)NC(=O)c3ccc(NC(=O)c4ccc(C#N)cn4)cc3)cc2)ccc(C(=O)Nc2ccc(C(=O)O)cc2)c1O [Compound 31] |  |  |  |  |  | MIC [4]: 2 µg/mL (≈ 2.46 µM) |
| C/C(=C\c1ccc(C#N)cc1)C(=O)Nc1ccc(C(=O)N[C@@H](CC(N)=O)C(=O)Nc2ccc(C(=O)Nc3ccc(C(=O)Nc4ccc(C(=O)O)cc4)c(O)c3OC(C)C)cc2)cc1 [Compound 46] |  |  |  |  |  | MIC [4]: 0.125 µg/mL (≈ 0.147 µM); MIC [5]: 0.06 µg/mL (≈ 0.0704 µM) |
| CC(C)Oc1cc(C(=O)Nc2ccc(C(=O)O)cc2)ccc1NC(=O)c1ccc(NC(=O)[C@H](CC(N)=O)NC(=O)c2ccc(NC(=O)c3ccc([N+](=O)[O-])cc3)cc2)cc1 [Compound 52] | > 64 µg/mL | > 64 µg/mL | 1 µg/mL (≈ 1.23 µM) | 0.06 µg/mL (≈ 0.0735 µM) | > 64 µg/mL |  |
| CC(C)COc1c(NC(=O)c2ccc(NC(=O)[C@H](CC(N)=O)NC(=O)c3ccc(NC(=O)c4ccc([N+](=O)[O-])cc4)cc3)cc2)ccc(C(=O)Nc2ccc(C(=O)O)cc2)c1O [Compound 53] | > 64 µg/mL | 1 µg/mL (≈ 1.18 µM) | > 64 µg/mL | 2 µg/mL (≈ 2.36 µM) | > 64 µg/mL |  |
| CC(C)Oc1c(NC(=O)c2ccc(NC(=O)[C@H](CC(N)=O)NC(=O)c3ccc(NC(=O)c4ccc(C#N)cc4)cc3)cc2)ccc(C(=O)O)c1O [Compound 67] |  |  |  |  |  | fold decrease of gyrase inhibition ([3]; compared to 22): more than 100 fold |
| CC(C)Oc1c(NC(=O)c2ccc(NC(=O)c3ccc(NC(=O)[C@H](CC(N)=O)NC(=O)c4ccc(NC(=O)c5ccc([N+](=O)[O-])cc5)cc4)cc3)c(OC(C)C)c2O)ccc(C(=O)O)c1O [Compound 78] | 0.5 µg/mL (≈ 0.552 µM) | 0.05 µg/mL (≈ 0.0552 µM) | 1 µg/mL (≈ 1.1 µM) | 0.125 µg/mL (≈ 0.138 µM) | > 64 µg/mL | IC50 [3]: 200 nM |
| CC(C)Oc1c(NC(=O)c2ccc(NC(=O)c3ccc(NC(=O)[C@H](CC(N)=O)NC(=O)c4ccc(NC(=O)c5ccc(C#N)cc5)cc4)cc3)c(OC(C)C)c2O)ccc(C(=O)O)c1O [Compound 79] | 0.25 µg/mL (≈ 0.282 µM) | ≤ 0.03 µg/mL | 1 µg/mL (≈ 1.13 µM) | ≤ 0.03 µg/mL | 2 µg/mL (≈ 2.26 µM) | IC50 [3]: 600 nM |
| C/C(=C\c1ccc(C#N)cc1)C(=O)Nc1ccc(C(=O)N[C@@H](CC(N)=O)C(=O)Nc2ccc(C(=O)Nc3ccc(C(=O)Nc4ccc(C(=O)O)c(O)c4OC(C)C)c(O)c3OC(C)C)cc2)cc1 [Compound 82] | 0.125 µg/mL (≈ 0.135 µM) | 0.06 µg/mL (≈ 0.0648 µM) | 0.25 µg/mL (≈ 0.27 µM) | ≤ 0.03 µg/mL | 1 µg/mL (≈ 1.08 µM) | IC50 [3]: 200 nM |
| COC(=O)c1ccc(NC(=O)c2ccc(NC(=O)c3ccc(NC(=O)[C@H](CC(N)=O)NC(=O)c4ccc(NC(=O)c5ccc([N+](=O)[O-])cc5)cc4)cc3)c(OC(C)C)c2)cc1 [Compound 129] | > 64 µg/mL | > 64 µg/mL | > 64 µg/mL | > 64 µg/mL | > 64 µg/mL |  |
| O=C(O)c1cn(C2CC2)c2cc(N3CCNCC3)c(F)cc2c1=O [ciprofloxacin, reference compound] |  |  |  |  |  | MIC [9]: 0.06 µg/mL (≈ 0.181 µM); MIC [10]: 1 µg/mL (≈ 3.02 µM); MIC [11]: 8 µg/mL (≈ 24.1 µM); MIC [5]: 0.32 µg/mL (≈ 0.966 µM) |
